The values that follow come from patent US11667628B2, “Compounds for imaging tau proteins that accumulate in brain” (National Institutes for Quantum and Radiological Science …, priority 2012, dated 2023).

Data set [1] has as its system NFTs in AD brain slices including the hippocampal formation. The data set is described as follows: In vitro autoradiography of AD brains including hippocampal formation. It counts as binding, human. As to conditions: for total binding after addition of non-radioactive PBB5 (100 μM) and thioflavin-S (10 μM) / signals in hippocampus CAI region and pes hippocampi: 10 nM radioligand; for signals in hippocampus CAI region and pes hippocampi: AD patient's brain slice. How it is done:
12 to 15-month-old non-Tg WT mice and PS19 mice were decapitated, and their brains were frozen and sliced into 20 μm-thick sections in a cryostat (HM560). The sections were placed on slide glass (Matsunami Glass), and kept at −80° C., until an analysis. Similarly, sections of the cerebral cortex were obtained from an AD patient. […] Non-specific bonding was detected in the presence of a 10 μMV non-radioactive ligand. Samples were reacted with [^11C]PBB2 or [^11C]PBB3, and were each washed twice, for 2 minutes, with an ice-cool Tris-HCl buffer solution containing 20% or 10% ethanol, and immersed in ice water for 10 seconds. After that, the sections were dried with warm air, and placed on imaging plates (Fuji Film). The imaging plates were scanned by a BAS500 system (Fuji Film), and autoradiograms were obtained (FIG. 6A).
In order to compare the binding of [^11C]PBB3 and [^11C]PIB to areas inside the human brain where there were plenty of tau pathologies, in vitro autoradiograms were obtained using AD brain slices including the hippocampal formation.

The test system of data set [2] is NFTs in the AD patient's hippocampus. The data set is described as follows: In vivo PET imaging of humans. Also noted: species or system human. Particulars: same AD and normal control subjects. An excerpt: 2 subjects with normal cognitive function ([…]; average 73.5 years old), and 3 AD patients ([…] years old; average 72 years old) were employed for this study. All the subjects were males, and all the AD patients were diagnosed in accordance with the standards of the National Institute of Neurological and Communicative Diseases and Stroke/Alzheimer's Disease and Related Disorders Association (NINCDS-ADRDA). The clinical dementia rating scale was 0 for both normal subjects, and ranged from 1 to 2 with the AD patients. Their cognitive function was evaluated by a mini-mental state examination (MMSE). […] During the [^11C]PBB-PET scanning, artery blood samples are obtained 10, 20, 30, 40, 50, 60, 70, 80, 90, 100, and 110 seconds after the injection, and 2, 2.5, 3, 4, 5, 6, 7, 8, 9, 10, 12, 15, 20, 25, 30, 40, 50, 60 and 70 minutes after the injection, and the amount of radioactivity in the plasma was measured. The radioactivity to match [^11C]PBB3 in unmetabolized plasma was measured by HPLC using the samples from 3, 10, 20, 30 and 60 minutes after the injection (Waters mBondapak C18 column, 7.8 mm×300 mm; acetonitrile/ammonium formate mobile phase, gradient elution=40/60 (0 minutes), 52/48 (6 minutes), 80/20 (7 minutes), 80/20 (8 minutes), 40/60 (9 minutes) and 40/60 (15 minutes); flow rate, 6 mL/minute). […]

Data set [3] relates to fibrous aggregate pathologies in AD grey matter. The data set is described as follows: In vitro autoradiography, AD frontal cortex sections. Particulars: up to 1 nM radioligand. The class given is binding, human.
For data set [4] the following is noted: literature by Zhuang et al.; cited from earlier work.
Data set [5] concerns the target Human T40 (the longest tau isoform formed with 441 amino acid residues) fibrils (Homo sapiens, UniProt P10636). The data set is described as follows: In vitro fluorometric binding assay, recombinant T40 tau fibrils. Particulars: for EC50: average±SE, concentration giving half of maximum fluorescence intensity; for λem (nm) T40: detection wavelength; for λem (nm) T40 / λex (nm) T40: compound bound to T40 polymers; for affinity to tau pathologies: fluorometric analysis using Aβ and tau filaments formed in a test tube; for λex (nm) T40: optimal excitation wavelength; for EC50 (Aβ)/EC50 (Tau): ratio of EC50 of Aβ40 fibrils to EC50 of T40 fibrils.

The target in data set [6] is Aβ40 fibrils (Homo sapiens, UniProt P05067). The experiment in a line: In vitro fluorometric binding assay, Aβ40 fibrils. As to conditions: for EC50: average±SE, concentration giving half of maximum fluorescence intensity; for λem (nm) Aβ40: detection wavelength; for λem (nm) Aβ40 / λex (nm) Aβ40: compound bound to Aβ40 polymers; for λex (nm) Aβ40: optimal excitation wavelength.
Aβ40 fibrils, sequence (P05067 672-711 limits assumed): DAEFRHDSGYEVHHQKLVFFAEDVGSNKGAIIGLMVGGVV

Human T40 (the longest tau isoform formed with 441 amino acid residues) fibrils, sequence (P10636 1-441 isoform P10636-8): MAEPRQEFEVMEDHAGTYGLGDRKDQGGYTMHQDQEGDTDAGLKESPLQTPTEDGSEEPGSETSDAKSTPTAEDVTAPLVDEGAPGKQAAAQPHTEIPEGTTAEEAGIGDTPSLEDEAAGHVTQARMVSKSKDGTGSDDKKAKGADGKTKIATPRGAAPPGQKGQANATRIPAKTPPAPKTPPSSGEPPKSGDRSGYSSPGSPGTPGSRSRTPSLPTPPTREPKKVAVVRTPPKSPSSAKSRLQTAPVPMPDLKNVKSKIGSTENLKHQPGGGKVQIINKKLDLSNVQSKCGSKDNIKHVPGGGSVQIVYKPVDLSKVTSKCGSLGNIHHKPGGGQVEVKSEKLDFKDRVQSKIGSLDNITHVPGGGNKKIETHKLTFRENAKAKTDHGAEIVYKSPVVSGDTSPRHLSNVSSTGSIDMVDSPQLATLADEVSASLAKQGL

With `[11CH3]Nc1ccc(/C=C/C=C/c2nc3ccc(O)cc3s2)cn1` [[^11C]PBB3, 2-((1E,3E)-4-(6-([^11C]methylamino)pyridine-3-yl)buta-1,3-dienyl)benz[d]thiazole-6-ol], in data set [1], the “total binding after addition of non-radioactive PBB5 (100 μM) and thioflavin-S (10 μM)” value is “clearly discarded”; the “signals in hippocampus CAI region and pes hippocampi” value is “Strong [^11C]PBB3 signals were observed”. In addition, in data set [1] (compared to [^11C]PIB), the “binding in cortex region in the side of the collateral sulcus” value is “more binding”. In addition, the “PET signal in hippocampal formation of AD patient compared to NC” value in data set [2] is recorded as “increased”. For the same compound, in data set [3], the “radiolabeling of fibrous aggregate pathologies, AD grey matters” value was “strongly radio-labeled”.

In the case of `O=C(O)c1cc(/C=C/c2ccc(/C=C/c3ccc(O)c(C(=O)O)c3)c(F)c2)ccc1O` [FSB, (E,E)-1-fluoro-2,5-bis(3-hydroxycarbonyl-4-hydroxy)styrylbenzene], the “passing the blood brain barrier” value in data set [4] is listed as “difficulty passing the blood brain barrier”.

Turning to `CC[n+]1c(/C=C/C=C/c2ccc(N(C)C)cc2)sc2ccccc21` [PBB5, 2-((1E,3E)-4-(4-(dimethylamino)phenyl)buta-1,3-dienyl)-3-ethylbenzo[d] thiazole-3-ium], in data set [5], the EC50 (as a rule, the concentration that produces a half-maximal response) worked out at 126 ± 67 nM; the “λem (nm) T40” value is 685 nm; the “affinity to tau pathologies” value was “high affinity”; the “λex (nm) T40” value is on record as 630 nm. Further, the “EC50 (Aβ)/EC50 (Tau)” value in data set [5] is given as 9.7. Moreover, in data set [6], the response was half-maximal at 1220 nM (EC50), the “λem (nm) Aβ40” value was found to be 685 nm and the “λex (nm) Aβ40” value is 635 nm.

For `CN(C)c1ccc(/C=C/C=C/c2nc3ccccc3s2)cc1` [PBB1, 4-((1E,3E)-4-(benz[d]thiazole-2-yl)buta-1,3-dienyl)-N,N-dimethylaniline], in data set [5], the EC50 is 402 ± 352 nM, the “λem (nm) T40” value is recorded as 565 nm, the “affinity to tau pathologies” value is recorded as “high affinity” and the “λex (nm) T40” value amounted to 515 nm. For the same compound, the “EC50 (Aβ)/EC50 (Tau)” value in data set [5] was determined as 10.2. Further, in data set [6], the midpoint of the response, the EC50, lay at 4110 nM; the “λem (nm) Aβ40” value is given as 565 nm; the “λex (nm) Aβ40” value stood at 440 nm.

Turning to `[11CH3]Nc1ccc(/C=C/C=C/c2nc3ccc(O)cc3s2)cc1` [[^11C]PBB2, 2-((1E,3E)-4-(4-([^11C]methylamino)phenyl)buta-1,3-dienyl)benz[d]thiazole-6-ol], the “radiolabeling of fibrous aggregate pathologies, AD grey matters” value in data set [3] is “strongly radio-labeled”.

In the case of thioflavin-S, the “passing the blood brain barrier” value in data set [4] is on record as “difficulty passing the blood brain barrier”.

Take `[11CH3]Nc1ccc(-c2nc3ccc(O)cc3s2)cc1` [[^11C]PIB, reference compound]: in data set [1], the “total binding after addition of non-radioactive PBB5 (100 μM) and thioflavin-S (10 μM)” value is on record as “clearly discarded, except for the white matter”; the “signals in hippocampus CAI region and pes hippocampi” value is “no [^11C]PIB signal was observed”. For the same compound, the “PET signal in hippocampal formation of AD patient compared to NC” value in data set [2] is recorded as “did not change much”.

As for `Cc1ccc2c(c1)sc(-c1ccc(N(C)C)cc1)[n+]2C.[Cl-]` [Thioflavin-T, reference compound], in data set [5], the “λem (nm) T40” value worked out at 485 nm and the “λex (nm) T40” value is 445 nm. For the same compound, in data set [6], the “λem (nm) Aβ40” value is listed as 495 nm and the “λex (nm) Aβ40” value is given as 445 nm.
